# Target: T1, human MAGL (His-hMAGL) (Homo sapiens, UniProt Q99685)
# T1 construct: made in house; host or cells: Escherichia coli BL21(DE3)
# T1 sequence (Q99685 1-303): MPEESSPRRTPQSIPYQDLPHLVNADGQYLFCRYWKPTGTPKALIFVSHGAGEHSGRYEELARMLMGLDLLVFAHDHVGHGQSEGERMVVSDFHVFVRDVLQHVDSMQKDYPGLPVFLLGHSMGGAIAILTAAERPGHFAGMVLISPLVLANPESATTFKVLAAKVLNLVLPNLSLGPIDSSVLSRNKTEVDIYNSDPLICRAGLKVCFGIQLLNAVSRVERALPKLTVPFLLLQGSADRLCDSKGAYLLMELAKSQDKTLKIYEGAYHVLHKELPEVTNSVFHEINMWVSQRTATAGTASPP
# Experiment: Measurement of MAGL inhibitory activity by mass spectrometry
# Type: biochemical
# Conditions: MAGL inhibitory rate, test compound 10 μM, His-hMAGL, substrate 2-arachidonylglycerol, RapidFire-mass spectrometry
# How it was run: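 His-tagged human MAGL was reacted with 150 μM 2-arachidonylglycerol substrate (stock, added by 5 μL) for 10 min at room temperature, then stopped with formic acid. Arachidonic acid product was quantified by RapidFire–triple-quadrupole MS in negative SRM mode, corrected by arachidonic acid-d8, and converted to percent inhibition.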
row,Structure (SMILES),inhibition at 10 µM
1,"CC(C)(C)CC(=O)N1CCc2cc(N3CC(N4CCN(C(=O)c5nccs5)CC4)CC3=O)ccc21 (centres unmarked) [Example 382, 1-(1-(3,3-Dimethylbutanoyl)-2,3-dihydro-1H-indol-5-yl)-4-(4-(1,3-thiazol-2-ylcarbonyl)piperazin-1-yl)pyrrolidin-2-one]",99%
2,"O=C(c1nccs1)N1CCN(C2CC(=O)N(c3ccc4c(c3)CCN4c3ccc(C(F)(F)F)cn3)C2)CC1 (centres unmarked) [Example 383, 4-(4-(1,3-thiazol-2-ylcarbonyl)piperazin-1-yl)-1-(1-(5-(trifluoromethyl)pyridin-2-yl)-2,3-dihydro-1H-indol-5-yl)pyrrolidin-2-one]",98%
3,"O=C(c1cscn1)N1CCN([C@@H]2CC(=O)N(c3ccc4c(c3)CCN4c3ncc(C(F)(F)F)cn3)C2)CC1 [Example 384, (4R)-4-(4-(1,3-thiazol-4-ylcarbonyl)piperazin-1-yl)-1-(1-(5-(trifluoromethyl)pyrimidin-2-yl)-2,3-dihydro-1H-indol-5-yl)pyrrolidin-2-one]",99%
4,"O=C(c1nccs1)N1CCN(C2CC(=O)N(c3ccc4c(c3)CCN4C(=O)Cc3ccccc3)C2)CC1 (centres unmarked) [Example 392, 1-(1-(phenylacetyl)-2,3-dihydro-1H-indol-5-yl)-4-(4-(1,3-thiazol-2-ylcarbonyl)piperazin-1-yl)pyrrolidin-2-one]",99%
5,"O=C(c1nccs1)N1CCN(C2CC(=O)N(c3ccc4c(c3)CCN4C(=O)Cc3ccc(Cl)cc3)C2)CC1 (centres unmarked) [Example 393, 1-(1-((4-chlorophenyl)acetyl)-2,3-dihydro-1H-indol-5-yl)-4-(4-(1,3-thiazol-2-ylcarbonyl)piperazin-1-yl)pyrrolidin-2-one]",93%
6,"O=C(c1nccs1)N1CCN(C2CC(=O)N(c3ccc4c(c3)CCN4C(=O)Cc3cccc(Cl)c3)C2)CC1 (centres unmarked) [Example 394, 1-(1-((3-Chlorophenyl)acetyl)-2,3-dihydro-1H-indol-5-yl)-4-(4-(1,3-thiazol-2-ylcarbonyl)piperazin-1-yl)pyrrolidin-2-one]",98%
7,"O=C(c1nccs1)N1CCN(C2CC(=O)N(c3ccc4c(c3)CCN4C(=O)Cc3ccccc3Cl)C2)CC1 (centres unmarked) [Example 395, 1-(1-((2-chlorophenyl)acetyl)-2,3-dihydro-1H-indol-5-yl)-4-(4-(1,3-thiazol-2-ylcarbonyl)piperazin-1-yl)pyrrolidin-2-one]",102%
8,"O=C(c1nccs1)N1CCN(C2CC(=O)N(c3ccc4c(c3)CCN4C(=O)c3ccccc3)C2)CC1 (centres unmarked) [Example 396, 1-(1-benzoyl-2,3-dihydro-1H-indol-5-yl)-4-(4-(1,3-thiazol-2-ylcarbonyl)piperazin-1-yl)pyrrolidin-2-one]",97%
9,"CC(C)CC(=O)N1CCc2cc(N3CC(N4CCN(C(=O)c5nccs5)CC4)CC3=O)ccc21 (centres unmarked) [Example 397, 1-(1-(3-methylbutanoyl)-2,3-dihydro-1H-indol-5-yl)-4-(4-(1,3-thiazol-2-ylcarbonyl)piperazin-1-yl)pyrrolidin-2-one]",101%
10,"O=C(c1nccs1)N1CCN(C2CC(=O)N(c3ccc4c(c3)CCN4C(=O)CC3CC3)C2)CC1 (centres unmarked) [Example 398, 1-(1-(cyclopropylacetyl)-2,3-dihydro-1H-indol-5-yl)-4-(4-(1,3-thiazol-2-ylcarbonyl)piperazin-1-yl)pyrrolidin-2-one]",100%
11,"O=C(c1nccs1)N1CCN(C2CC(=O)N(c3ccc4c(c3)CCN4C(=O)CC(F)(F)F)C2)CC1 (centres unmarked) [Example 399, 4-(4-(1,3-thiazol-2-ylcarbonyl)piperazin-1-yl)-1-(1-(3,3,3-trifluoropropanoyl)-2,3-dihydro-1H-indol-5-yl)pyrrolidin-2-one]",95%
12,"O=C(c1nccs1)N1CCN(C2CC(=O)N(c3ccc4c(c3)CCN4C(=O)C3CCOCC3)C2)CC1 (centres unmarked) [Example 400, 1-(1-(tetrahydro-2H-pyran-4-ylcarbonyl)-2,3-dihydro-1H-indol-5-yl)-4-(4-(1,3-thiazol-2-ylcarbonyl)piperazin-1-yl)pyrrolidin-2-one]",96%
13,"O=C(c1nccs1)N1CCN(C2CC(=O)N(c3ccc4c(c3)CCN4C(=O)CC3CCOCC3)C2)CC1 (centres unmarked) [Example 401, 1-(1-(tetrahydro-2H-pyran-4-ylacetyl)-2,3-dihydro-1H-indol-5-yl)-4-(4-(1,3-thiazol-2-ylcarbonyl)piperazin-1-yl)pyrrolidin-2-one]",94%
14,"O=C(c1cscn1)N1CCN([C@@H]2CC(=O)N(c3ccc4c(c3)CCN4c3ccc(C(F)(F)F)cc3)C2)CC1 [Example 405, (4R)-4-(4-(1,3-Thiazol-4-ylcarbonyl)piperazin-1-yl)-1-(1-(4-(trifluoromethyl)phenyl)-2,3-dihydro-1H-indol-5-yl)pyrrolidin-2-one]",103%
15,"CC(C)(C)OC(=O)N1CCc2cc(N3C[C@H](N4CCN(C(=O)c5cscn5)CC4)CC3=O)ccc21 [Example 408, tert-butyl 5-((4R)-2-oxo-4-(4-(1,3-thiazol-4-ylcarbonyl)piperazin-1-yl)pyrrolidin-1-yl)indoline-1-carboxylate]",103%

# Further lines, results first:
row,inhibition at 10 µM,Structure (SMILES)
1,97%,"O=C1CC(N2CCN(c3ncccn3)CC2)CN1c1ccc2c(c1)CCN2c1ccnc(C(F)(F)F)c1 (centres unmarked) [Example 377, 4-(4-(pyrimidin-2-yl)piperazin-1-yl)-1-(1-(2-(trifluoromethyl)pyridin-4-yl)-2,3-dihydro-1H-indol-5-yl)pyrrolidin-2-one]"
2,95%,"O=C1CC(N2CCN(c3ncccn3)CC2)CN1c1ccc2c(c1)CCN2c1ncc(C(F)(F)F)cn1 (centres unmarked) [Example 378, 4-(4-(Pyrimidin-2-yl)piperazin-1-yl)-1-(1-(5-(trifluoromethyl)pyrimidin-2-yl)-2,3-dihydro-1H-indol-5-yl)pyrrolidin-2-one]"
3,100%,"O=C(c1nccs1)N1CCN([C@@H]2CC(=O)N(c3ccc4c(c3)CCN4c3cc(C(F)(F)F)ncn3)C2)CC1 [Example 385, (4R)-4-(4-(1,3-thiazol-2-ylcarbonyl)piperazin-1-yl)-1-(1-(6-(trifluoromethyl)pyrimidin-4-yl)-2,3-dihydro-1H-indol-5-yl)pyrrolidin-2-one]"
4,99%,"O=C(c1nccs1)N1CCN(C2CC(=O)N(c3ccc4oc(-c5ccc(F)cc5)nc4c3)C2)CC1 (centres unmarked) [Example 386, 1-(2-(4-fluorophenyl)-1,3-benzoxazol-5-yl)-4-(4-(1,3-thiazol-2-ylcarbonyl)piperazin-1-yl)pyrrolidin-2-one]"
5,97%,"O=C(c1nccs1)N1CCN(C2CC(=O)N(c3ccc4nc(-c5ccccc5)oc4c3)C2)CC1 (centres unmarked) [Example 387, 1-(2-phenyl-1,3-benzoxazol-6-yl)-4-(4-(1,3-thiazol-2-ylcarbonyl)piperazin-1-yl)pyrrolidin-2-one]"
6,99%,"O=C(c1nccs1)N1CCN([C@@H]2CC(=O)N(c3ccc4c(c3)CCN4c3ccnc(C(F)(F)F)n3)C2)CC1 [Example 388, (4R)-4-(4-(1,3-thiazol-2-ylcarbonyl)piperazin-1-yl)-1-(1-(2-(trifluoromethyl)pyrimidin-4-yl)-2,3-dihydro-1H-indol-5-yl)pyrrolidin-2-one]"
7,98%,"CC(C)(C)OC(=O)N1CCc2cc(N3CC(N4CCN(c5ncccn5)CC4)CC3=O)ccc21 (centres unmarked) [Example 389, tert-butyl 5-(2-oxo-4-(4-(pyrimidin-2-yl)piperazin-1-yl)pyrrolidin-1-yl)indoline-1-carboxylate]"
8,96%,"O=C(c1nccs1)N1CCN([C@@H]2CC(=O)N(c3ccc4c(c3)CCN4c3cnc(C(F)(F)F)cn3)C2)CC1 [Example 390, (4R)-4-(4-(1,3-thiazol-2-ylcarbonyl)piperazin-1-yl)-1-(1-(5-(trifluoromethyl)pyrazin-2-yl)-2,3-dihydro-1H-indol-5-yl)pyrrolidin-2-one]"
9,90%,"O=C(c1nccs1)N1CCN([C@@H]2CC(=O)N(c3ccc4c(c3)CCN4c3cnc(C(F)(F)F)nc3)C2)CC1 [Example 391, (4R)-4-(4-(1,3-thiazol-2-ylcarbonyl)piperazin-1-yl)-1-(1-(2-(trifluoromethyl)pyrimidin-5-yl)-2,3-dihydro-1H-indol-5-yl)pyrrolidin-2-one]"
10,94%,"O=C(c1nccs1)N1CCN([C@@H]2CC(=O)N(c3cc4ccn(-c5ccc(C(F)(F)F)cn5)c4cn3)C2)CC1 [Example 402, (4R)-4-(4-(1,3-thiazol-2-ylcarbonyl)piperazin-1-yl)-1-(1-(5-(trifluoromethyl)pyridin-2-yl)-1H-pyrrolo[2,3-c]pyridin-5-yl)pyrrolidin-2-one]"
11,91%,"O=C1CC(N2CCN(c3ncccn3)CC2)CN1c1cc(F)cc(Br)c1 (centres unmarked) [Example 403, 1-(3-Bromo-5-fluorophenyl)-4-(4-(pyrimidin-2-yl)piperazin-1-yl)pyrrolidin-2-one]"
12,96%,"Cc1ncccc1-c1cc(N2CC(N3CCN(c4ncccn4)CC3)CC2=O)ccc1F (centres unmarked) [Example 404, 1-(4-fluoro-3-(2-methylpyridin-3-yl)phenyl)-4-(4-(pyrimidin-2-yl)piperazin-1-yl)pyrrolidin-2-one]"
13,98%,"Cc1ncccc1-c1cc(F)cc(N2CC(N3CCN(c4ncccn4)CC3)CC2=O)c1 (centres unmarked) [Example 406, 1-(3-Fluoro-5-(2-methylpyridin-3-yl)phenyl)-4-(4-(pyrimidin-2-yl)piperazin-1-yl)pyrrolidin-2-one]"
14,104%,"COc1cnc(N2CCc3cc(N4C[C@H](N5CCN(C(=O)c6nccs6)CC5)CC4=O)ccc32)nc1 [Example 407, (4R)-1-(1-(5-methoxypyrimidin-2-yl)-2,3-dihydro-1H-indol-5-yl)-4-(4-(1,3-thiazol-2-ylcarbonyl)piperazin-1-yl)pyrrolidin-2-one]"

# From patent US9624170B2, “4-(piperrazin-1-yl)-pyrrolidin-2-one compounds as monoacylglycerol lipase (MAGL) inhibitors” (TAKEDA PHARMACEUTICAL COMPANY LIMITED, priority 2013, dated 2017)
